The values that follow come from patent US20110224079A1, “SPIROHETEROCYCLIC N-OXYAMIDES AS PESTICIDES” (SYNGENTA CROP PROTECTION LLC, priority 2008, published 2011).

Assay [1] has as its system cowpea aphid (Aphis craccivora). The assay is described as follows: Example B14: insecticide seed treatment of sugarbeet seeds, infestation with cowpea aphid. To be noted: 0.3 mg a.i./seed, infested after 14 days, counted 7 days later. The class given is in vivo. How it is done:
Insecticide Seed Treatment
Sugarbeet seeds are treated with test compounds at various rates (mg a.i./seed). The seeds are sown into pots filled with soil. After placing the seeds on the soil surface they are further covered with soil. Before and during the bioassays, the plants are grown under optimal greenhouse conditions. After 14 days, the plants are infested with cowpea aphid (Aphis craccivora) by placing one infested pea seedling containing approximately 150 aphids of a population of mixed developmental stages onto each plant. Seven days after infestation, the number of aphids is counted per plant. Each treatment group is replicated 10 times. Each replicate contains 1 plant.

In assay [2] the test system is Aphis Craccivora (cowpea aphid). The assay is described as follows: Example B11: translaminar activity against Aphis craccivora on French bean leaves. The class given is in vivo. The settings on record: 120 h, upper leaf side painted, aphids on lower side, 5 days. The procedure:
Translaminar Activity Against Aphis Craccivora (Cowpea Aphid)
French bean leaves (Phaseolus vulgaris) are infested with about 20 mixed age individuals on the lower leaf side using clip cages. 1 day after the infestation, the upper side of the leaves is treated with the test solution by painting. 5 days later, samples are checked for mortality.

Assay [3] concerns Nilaparvata lugens (brown rice planthopper). Description: Example B8: activity against Nilaparvata lugens, sprayed rice seedlings (larvicide, feeding/contact). To be noted: in Oryza sativa, read-out: activity (mortality, growth regulation, effects on F1 generation).
For assay [4], the system named is Myzus persicae (green peach aphid). Description: Example B2: activity against Myzus persicae, pea seedling roots in test solution (systemic/feeding, curative). The settings on record: 144 h, read-out: activity (mortality).
Assay [5] shares this test system. The assay is described as follows: Example B13: drench activity against Myzus persicae, pea seedlings in field soil. To be noted: 168 h, read-out: drench activity (mortality).
Assay [6] shares this test system. Description: Example B1: activity against Myzus persicae, sprayed sunflower leaf discs (feeding/residual contact, preventive). The settings on record: foliar, 144 h, read-out: activity (mortality).
For assay [7], the system named is Bemisia tabaci (tobacco white fly). The assay is described as follows: Example B7: activity against Bemisia tabaci, sprayed bean plants (larvicide, contact/feeding). The class given is in vivo. The settings on record: 504 h, bean plants with N-2 nymphs sprayed, three weeks, read-out: activity (efficacy, number of emerged adults). An outline of the steps: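 After a 4-day egg-laying period and 7 further days, bean plants bearing hatched N-2 nymphs were sprayed with test solutions (2 replicates). Emerged adults were counted three weeks later; efficacy was derived by comparison with untreated samples.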

In assay [8] the test system is Myzus persicae (green peach aphid). Description: Example B17: activity against Myzus persicae on sprayed pepper plants (feeding/residual contact). The class given is in vivo. To be noted: 144 h, infested pepper plants sprayed, 6 days.
Assay [9] deals with Plutella xylostella (diamond back moth). The assay is described as follows: Example B5: activity against Plutella xylostella, artificial diet in microtiter plate (larvicide, preventive). The class given is in vivo. To be noted: 120 h, L2 larvae, 5 days, read-out: activity (larval mortality, antifeedant, growth regulation). How it is done: Activity Against Plutella xylostella (Diamond Back Moth)
(Larvicide, Feeding/Residual Contact Activity, Preventive)
24-well microtiter plate (MTP) with artificial diet is treated with test solutions by pipetting. After drying, the MTP's are infested with larvae (L2)(10-15 per well). After an incubation period of 5 days, samples are checked for larval mortality, antifeedant and growth regulation.

As for `COCON1C(=O)C(c2cc(C)ccc2C)=C(O)C12CCN(OC)CC2` [P2.2, 3-(2,5-dimethyl-phenyl)-4-hydroxy-8-methoxy-1-methoxymethoxy-1,8-diaza-spiro[4.5]dec-3-en-2-one], in assay [1], the “efficacy in the reduction of aphids compared to the untreated control plants” value was 60%. In addition, the mortality at 400 ppm in assay [2], in assay [3], in [4], in assay [6] and in assay [9] was above 80% each time. The mortality at 25 ppm in [5] was above 80%. In addition, in [7], the pest or weed control at 200 ppm is above 80%. Besides, in assay [8], the mortality at 200 ppm is at least 80%.
